According to US20030119894A1, “Methods for treatment of cancer or neoplastic disease and for inhibiting growth of cancer cells and neoplastic cells” (Gemin X Biotechnologies Inc., priority 2001, published 2003):

Assays:
[1] = system: E1A cells; experiment: E1A-Bcl2 killing assay; assay type: cell-based
Protocol: (§1) Human anti-apoptotic Bcl-2 over-expressing epithelial cells (B23 cells) (Nguyen et al. (1994) J. Biol. Chem. 269 (24): 16521-24) were plated in 24-well plates at a density of about 80,000 cells per well and infected with 12S-adenovirus, which expresses the E1A oncogene (Nguyen et al. (1998) J. Biol. Chem. 273 (50): 33099-102). Normal human breast epithelial cells, MCF-7 breast cancer cells and MBA-MB231 breast cancer cells were plated in 24-well plates at a density of between 70,000-80,000 cells per well. After incubation at 37° C. for the indicated times in a 5% CO2 incubator, cells were harvested and cell death was monitored using a trypan blue assay as described in Ausubel et al. (1988) Current Protocols in Molecular Biology, Section 11.5.1 (Greene Publishing Associates and Intersciences, New York)).
IC50 values determined for these illustrative compounds in an E1A killing assay, using the materials and methods described above. These compounds have been described in Gerber et al. (1975), Critical Reviews in Microbiology, pp. 469-85.

[2] = system: B23 cells; experiment: cells; assay type: cell-based, Human
Protocol: as §1
Normally, intracellular expression of an oncogene in cells results in apoptotic cell death. However, if anti-apoptotic Bcl-2 is over-expressed in these cells, they are protected from apoptosis. Therefore, an anti-cancer compound's activity can be monitored by measuring cell death in B23 cells in the presence of the E1A oncogene.

[3] = target: Bcl-2 (Homo sapiens, UniProt P10415); experiment: Anti-apoptotic:Pro-apoptotic binding assay, Bcl-2
Sequence of Bcl-2 (P10415 whole entry): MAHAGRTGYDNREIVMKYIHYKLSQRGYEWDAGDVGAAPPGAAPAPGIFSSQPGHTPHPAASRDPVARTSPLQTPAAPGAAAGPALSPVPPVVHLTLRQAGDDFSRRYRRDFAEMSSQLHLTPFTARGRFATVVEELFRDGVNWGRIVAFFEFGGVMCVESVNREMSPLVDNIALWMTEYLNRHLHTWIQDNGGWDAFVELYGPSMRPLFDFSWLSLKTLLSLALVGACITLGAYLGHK

[4] = system: B23 cells; assay type: cell-based, Human; details: B23 cells without E1A; data not shown
[5] = system: MBA-MB231 breast cancer cells; experiment: cells; assay type: cell-based; details: 72 h, read-out: Cytotoxicity (% Dead Cells)
Protocol: as §1

[6] = system: MCF-7 breast cancer cells; experiment: Trypan blue cell death assay in MCF-7 breast cancer cells; assay type: cell-based; details: Homo sapiens, MCF7, 72 h, read-out: Cytotoxicity (% Dead Cells)
Protocol: as §1

[7] = system: Baby rat kidney cells; experiment: Transformation of baby rat kidney cells transfected with E1A oncogene and Bcl-2 (colony count); assay type: cell-based
Protocol: Baby rat kidney cells were transfected with RcRSV (Hartl et al. (1992) Cell Growth Differ. 3 (12): 909-18) expressing both E1A oncogene and anti-apoptotic Bcl-2 as described in (Lin et al. (1995) Mol. Cell. Biol. 15 (8): 4536-44). Transfected cells were then cultured (Lin et al. (1995) Mol. Cell. Biol. 15 (8): 4536-44) in the presence of varying concentrations of Butyl-meta-cycloheptylprodiginine for three weeks and the number of transformed cell colonies was counted.

[8] = system: Human oral epithelial carcinoma cells (KB cells); experiment: Apoptosis reinstatement in Bcl-2 over-expressing KB cells (trypan blue); assay type: cell-based
Protocol: Human oral epithelial carcinoma cells (KB cells) with and without stably expressed anti-apoptotic Bcl-2 were infected with 12S-adenovirus expressing the E1A oncogene, as described above in Example 6.1. Cell death was monitored 70 hours after infection using the trypan blue assay described above.

[9] = system: Normal human breast epithelial cells; experiment: Trypan blue cell death assay in normal human breast epithelial cells; assay type: cell-based; details: 1 μM
Protocol: as §1

[10] = as above; assay type: cell-based; details: human
Protocol: as §1

[11] = system: normal baby rat kidney cells; experiment: Susceptibility of normal baby rat kidney cells; assay type: cell-based; details: similar conditions; data not shown
Description: In the absence of anti-apoptotic Bcl-2, all baby rat kidney cells died within a few days (data not shown).

[12] = target: T1, Bcl-w (Homo sapiens, UniProt Q92843); experiment: Anti-apoptotic:Pro-apoptotic binding assay, Bcl-w
T1 sequence (Q92843 1-193): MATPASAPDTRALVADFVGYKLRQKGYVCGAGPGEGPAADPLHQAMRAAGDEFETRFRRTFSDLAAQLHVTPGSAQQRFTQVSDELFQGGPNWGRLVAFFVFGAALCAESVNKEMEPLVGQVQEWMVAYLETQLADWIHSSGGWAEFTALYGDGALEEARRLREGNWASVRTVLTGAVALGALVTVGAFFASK

[13] = Homo sapiens, 72 h, read-out: Cytotoxicity (% Dead Cells)

CCC1CCCCCCCCc2ccc([nH]2)/C=C2\N=C(C=C2OC)c2ccc1[nH]2 (stereo not shown) [Ethylcyclononylprodiginine, ethylcyclononyl-prodiginine]
inhibition at 5 µM ([1]; read-out: % inhibition at μM concentration, E1A-Bcl2 killing assay): 20% | cytotoxicity at 1 µM [2, 13]: 15% | cytotoxicity at 5 µM [2, 13]: 20% | inhibition at 510 µM ([3]; at 510 μM, read-out: % inhibition at μM concentration, Anti-apoptotic:Pro-apoptotic binding assay Bcl-2): 45%

Undecylprodiginine
% inhibition at μM concentration, E1A-Bcl2 killing assay ([1]; at 5 μM): 25%; 5 μM | Cytotoxicity (% Dead Cells) ([2]; B23 cells, 1.0 μM, 72 h): 18% | Cytotoxicity (% Dead Cells) ([2]; B23 cells, 5.0 μM, 72 h): 25% | % inhibition at μM concentration, Anti-apoptotic:Pro-apoptotic binding assay Bcl-2 ([3]; at 500 μM): 40%; 500 μM

CCCCC1CCCCCCc2cc1c(/C=C1\N=C(c3ccc[nH]3)C=C1OC)[nH]2 (stereo not shown) [Butyl-meta-cycloheptylprodiginine, butyl-meta-cycloheptylprodiginine]
Effect on B23 cell death in the absence of E1A [4]: no significant effect | cytotoxicity at 0.25 µM [5]: 64% | cytotoxicity at 1 µM [5]: 100% | cytotoxicity at 2 µM [5]: 100% | IC50 ([1]; read-out: IC50 (μM) E1A-Bcl2 killing assay): 0.05 µM | cytotoxicity at 0.25 µM [6]: 70% | cytotoxicity at 1 µM [6]: 100% | cytotoxicity at 2 µM [6]: 100% | Apoptosis of transformed colonies ([7]; baby rat kidney cells transformed with Bcl-2 and E1A): promoted apoptosis of the transformed colonies | Number of transformed cell colonies (ability of Bcl-2 to transform cells in the presence of E1A) ([7]; increasing concentrations, three weeks): significantly lowered the ability of anti-apoptotic Bcl-2 to transform cells | Apoptosis in uninfected KB cells ([8]; uninfected cells, same concentrations): no effect on apoptosis | Apoptosis in E1A-infected Bcl-2 over-expressing KB cells ([8]; various concentrations, 70 hours after infection): reinstate apoptosis | Concentration able to inhibit Bcl-2 in B23 cells and re-establish the killing effect of the E1A oncogene ([2]; B23 cells with E1A, concentrations as low as): 0.25 µM | cytotoxicity at 1 µM [2, 13]: 85% | cytotoxicity at 2 µM [2, 13]: 95% | cytotoxicity at 0.25 µM ([2]; Homo sapiens, B23 cells, 0.25 μM, 72 h, read-out: Cytotoxicity (% Dead Cells)): 75% | IC50 [3]: 125 µM | Effect on normal human breast epithelial cells [9]: not affected | cytotoxicity at 72 h, 0.25 µM [10]: 5% | cytotoxicity at 72 h, 1 µM [10]: 5% | cytotoxicity at 72 h, 2 µM [10]: 15% | Susceptibility of normal baby rat kidney cells [11]: not susceptible | IC50 [12]: 100 µM
